Assay results taken from patent publication US20240368122A1, “JAK2 INHIBITORS AND METHODS OF USE THEREOF” (RELAY THERAPEUTICS, INC., priority 2021, published 2024).

Key:
[1] = test system: TF1 JAK2 V617F STAT5 reporter; test: Cellular TF1 STAT5 assay (luciferase reporter), JAK2 V617F; format: cell-based; conditions: TF1 JAK2 V617F, read-out: Cell PD TF1 V617F STAT5 (IC50)
In short: (§1)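 Compounds were dispensed as 1000× DMSO stocks (10 mM top, 1:3 steps), then V617F JAK2 TF1 cells carrying a STAT3 or STAT5 luciferase reporter were added. After 18-20 h at 37 °C, ONE-glo reagent was added and luminescence measured.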

[2] = biological target: T1, JAK2 JH2 WT (V536-D812) [W659A, W777A, F794H solubilizing mutations] (Homo sapiens, UniProt O60674, F794H/W659A/W777A); test: Surface Plasmon Resonance (SPR) binding assay, JAK2 JH2 domain; conditions: SPR, JAK2 JH2 domain
T1 construct: **JAK2 JH2 WT (V536-D812) [W659A, W777A, F794H solubilizing mutations]; C-thrombin-avi-His6; thrombin cleavage site (C); His6 (C); purchased Biortus
T1 sequence (O60674 536-812 W659A/W777A/F794H): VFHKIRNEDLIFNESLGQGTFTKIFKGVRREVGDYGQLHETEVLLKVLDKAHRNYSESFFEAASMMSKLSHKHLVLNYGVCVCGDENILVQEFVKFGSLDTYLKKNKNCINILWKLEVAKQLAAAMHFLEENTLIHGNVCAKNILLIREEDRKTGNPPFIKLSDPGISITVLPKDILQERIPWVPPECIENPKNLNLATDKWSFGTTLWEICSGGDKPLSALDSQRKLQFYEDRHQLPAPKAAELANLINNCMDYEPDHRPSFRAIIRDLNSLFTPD
In short: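 Kinetics came from 1:1 fits of single-cycle runs at 20 °C: four 3-fold dilutions from 5 uM for JH1 or 500 nM for JH2, 60 s association, and 300 s or 1200 s dissociation respectively. Protein was freshly captured per compound in the presence of 10 uM stabilizer compound, with running buffer of pH 7.5 HEPES/NaCl/glycerol/DTT plus 2% DMSO.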

[3] = test system: TF1 JAK2 V617F STAT3 reporter; test: Cellular TF1 STAT3 assay (luciferase reporter), JAK2 V617F; format: cell-based; conditions: TF1 JAK2 V617F, read-out: Cell PD-TF1 JAK2 V617F STAT3 (IC50)
In short: as §1

| Structure (SMILES) | IC50 [1] | Kd [2] | IC50 [3] |
| --- | --- | --- | --- |
| CNC(=O)c1nnc(NC(=O)C2CC2)cc1Nc1cccc(-c2cnn(C3CN(Cc4cccnc4Cl)C3)c2)c1OC [Compound 169] | 50 to 500 nM | 0.01 to 10 nM | 50 to 500 nM |
| CNC(=O)c1nnc(NC(=O)C2CC2)cc1Nc1cccc(-c2cnn(C3CN(Cc4csnn4)C3)c2)c1OC [Compound 173] | 50 to 500 nM | 0.01 to 10 nM | 50 to 500 nM |
| CNC(=O)c1nnc(NC(=O)C2CC2)cc1Nc1cccc(-c2cc(C3CN(Cc4cnn(C)c4)C3)nn2C)c1OC [Compound 175] | 5000 to 100000 nM | 0.01 to 10 nM | 5000 to 100000 nM |
| CNC(=O)c1nnc(NC(=O)C2CC2)cc1Nc1cccc(-c2cc(C3CN(Cc4cc(C#N)ccn4)C3)nn2C)c1OC [Compound 177] | 5000 to 100000 nM | 0.01 to 10 nM | 5000 to 100000 nM |
| CNC(=O)c1nnc(NC(=O)C2CC2)cc1Nc1cccc(-c2cn(C3CN(Cc4cccc(C#N)n4)C3)nn2)c1OC [Compound 183] | 50 to 500 nM | 0.01 to 10 nM | 500 to 5000 nM |
| CNC(=O)c1nnc(NC(=O)C2CC2)cc1Nc1cccc(-c2cn(C3CN(Cc4ccccn4)C3)nc2C)c1OC [Compound 184] | 500 to 5000 nM | 0.01 to 10 nM | 500 to 5000 nM |
| CNC(=O)c1nnc(NC(=O)C2CC2)cc1Nc1cccc(-c2cn(C3CN(Cc4cccc(C#N)n4)C3)nc2C)c1OC [Compound 185] | 500 to 5000 nM | 0.01 to 10 nM | 500 to 5000 nM |
| CNC(=O)c1nnc(NC(=O)C2CC2)cc1Nc1ccc(C)c(-c2cc(C3CCN(Cc4cc(C#N)ccn4)CC3)n(C)n2)c1OC [Compound 186] | 5000 to 100000 nM | 50 to 500 nM | 5000 to 100000 nM |

Next, values leading:

| IC50 [1] | Kd [2] | IC50 [3] | Structure (SMILES) |
| --- | --- | --- | --- |
| 50 to 500 nM | 0.01 to 10 nM | 50 to 500 nM | CNC(=O)c1nnc(NC(=O)C2CC2)cc1Nc1cccc(-c2ccc(C(=O)N(C)Cc3c(C)nn(C)c3C)nc2)c1OC [Compound 168] |
| 500 to 5000 nM | 0.01 to 10 nM | 500 to 5000 nM | CNC(=O)c1nnc(NC(=O)C2CC2)cc1Nc1cccc(-c2ccc(C(=O)N(C)Cc3cc(C#N)ccn3)c(C(F)(F)F)c2)c1OC [Compound 170] |
| 500 to 5000 nM | 0.01 to 10 nM | 500 to 5000 nM | CNC(=O)c1nnc(NC(=O)C2CC2)cc1Nc1cccc(-c2ccc(C(=O)N(C)Cc3ccn(C)n3)c(C(F)(F)F)c2)c1OC [Compound 171] |
| 50 to 500 nM | 0.01 to 10 nM | 50 to 500 nM | CNC(=O)c1nnc(NC(=O)C2CC2)cc1Nc1cccc(-c2cnc(C(=O)N(C)Cc3cn(C)nc3C)c(F)c2)c1OC [Compound 172] |
| 50 to 500 nM | 0.01 to 10 nM | 50 to 500 nM | CNC(=O)c1nnc(NC(=O)C2CC2)cc1Nc1cccc(-c2ccc(C(=O)N(C)Cc3csc(C)n3)nc2)c1OC [Compound 174] |
| 50 to 500 nM | 0.01 to 10 nM | 500 to 5000 nM | CNC(=O)c1cnc(NC(=O)C2CC2)cc1Nc1cccc(-c2ccc(C(=O)N(C)Cc3cc(C#N)ccn3)nc2)c1OC [Compound 176] |
| 5000 to 100000 nM | 0.01 to 10 nM | 5000 to 100000 nM | CNC(=O)c1nnc(NC(=O)C2CC2)cc1Nc1cccc(-c2ccc(C(=O)N(C)Cc3ncc(C#N)s3)nc2)c1OC [Compound 178] |
| 500 to 5000 nM | 0.01 to 10 nM | 500 to 5000 nM | CNC(=O)c1nnc(NC(=O)C2CC2)cc1Nc1cccc(-c2ccc(C(=O)N(C)Cc3cccc(OC(F)F)n3)nc2)c1OC [Compound 179] |
| 500 to 5000 nM | 0.01 to 10 nM | 500 to 5000 nM | CNC(=O)c1nnc(NC(=O)C2CC2)cc1Nc1ccc(C)c(-c2ccc(C(=O)N(C)Cc3nccs3)nc2)c1OC [Compound 180] |
| 500 to 5000 nM | 0.01 to 10 nM | 5000 to 100000 nM | CNC(=O)c1nnc(NC(=O)C2CC2)cc1Nc1cccc(-c2ccc(C3CN(Cc4ccccn4)C3)nc2)c1OC [Compound 182] |
